# Molecular target: T1, soybean lipoxygenase (LOX) (Glycine max, UniProt P08170)
# T1 construct: gene LOX1.1
# T1 sequence (P08170 1-839): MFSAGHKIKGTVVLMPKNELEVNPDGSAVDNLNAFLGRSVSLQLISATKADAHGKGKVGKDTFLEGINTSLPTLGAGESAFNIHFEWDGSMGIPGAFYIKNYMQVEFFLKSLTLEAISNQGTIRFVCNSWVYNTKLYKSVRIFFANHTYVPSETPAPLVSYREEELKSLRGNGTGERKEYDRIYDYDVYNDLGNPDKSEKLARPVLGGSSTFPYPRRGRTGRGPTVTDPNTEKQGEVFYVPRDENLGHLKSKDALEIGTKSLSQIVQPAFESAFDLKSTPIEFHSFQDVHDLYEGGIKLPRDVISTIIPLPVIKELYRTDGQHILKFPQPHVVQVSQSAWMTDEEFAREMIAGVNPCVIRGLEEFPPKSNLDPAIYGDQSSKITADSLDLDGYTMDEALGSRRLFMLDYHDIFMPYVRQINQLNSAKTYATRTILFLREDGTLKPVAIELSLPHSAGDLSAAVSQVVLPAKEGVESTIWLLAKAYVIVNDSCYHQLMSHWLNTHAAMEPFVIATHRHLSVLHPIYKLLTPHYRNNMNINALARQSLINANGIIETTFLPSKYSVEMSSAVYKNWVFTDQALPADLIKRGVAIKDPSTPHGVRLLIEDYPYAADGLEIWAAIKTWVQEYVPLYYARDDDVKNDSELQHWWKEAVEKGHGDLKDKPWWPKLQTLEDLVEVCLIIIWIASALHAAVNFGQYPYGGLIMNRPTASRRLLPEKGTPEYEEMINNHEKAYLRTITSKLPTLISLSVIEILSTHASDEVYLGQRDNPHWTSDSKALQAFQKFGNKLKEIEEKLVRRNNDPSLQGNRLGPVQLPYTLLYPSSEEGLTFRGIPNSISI
# Test: UV absorbance at […] nm, sodium linoleate oxidation by soybean LOX, pH […]
# Type: biochemical
smiles,measurement,value
CC(C)(C)/[N+]([O-])=C/c1ccc2cccc(O)c2n1 [QN5],IC50,5 µM

# Source: publication PMC9938201, “Neuroprotective and antioxidant properties of new quinolylnitrones in in vitro and in vivo cerebral ischemia models” (Scientific Reports, 2023)
